# Data: article PMC6748948, “A Bone Morphogenetic Protein (BMP)-derived Peptide Based on the Type I Receptor-binding Site Modifies Cell-type Dependent BMP Signalling” (Scientific Reports, 2019)
# Peptide text beside a SMILES is read from it.
# Columns and labels:
# ALK3 = ALK3 expressed from different host cells; read-out: KD values of BMP4 for ALK3; cited from earlier work
# Description: (§1) It is intriguing why the same peptide could promote BMP9 signalling in PAECs while inhibit BMP4 signalling in HMECs, an effect which is also recapitulated in the SPR binding studies (Fig. 4A–D, Supplemental Fig. 4). Whilst it is difficult to provide a direct structural explanation, this may relate to the difference in affinities and concentrations of the receptors for the ligands. ALK1 binds BMP9 with affinity of around 0.03 nM[8]. The reported KD values of BMP4 for ALK3 (with ALK3 expressed from different host cells) are 1–10 nM[30],[31]. It is plausible that the inhibitory effect of P3 on BM ...
# BMP4 binding to ALK3-Fc = test: SPR, BMP4 binding to ALK3-Fc in the presence of peptide; settings: BMP4 50 nM, peptide 0.25-1 mM, compared with P3
# Description: Peptide-receptor binding assays were performed using Biacore T200 biosensor (Biacore/GE Healthcare). ALK1-Fc, ALK2-Fc or ALK3-Fc was covalently linked onto individual flow cells of a research grade CM5 chip (GE Healthcare) via amine-coupling using standard manufacturer’s protocol. One flow cell was used as a control for subtracting non-specific binding. Peptides were injected over the immobilised chip at various concentrations up to 1 mM at a flow rate of 30 μl/min for 3 min at 37 °C in running buffer containing 0.01 M HEPES, 0.5 M NaCl, 3 mM EDTA and 0.005% v/v Surfactant P20 (pH 7.4). At the end of each peptide injection, the chip surface was regenerated with 4 M Guanidine hydrochloride (GnHCl). The biotinylated peptide P3* was immobilised onto a streptavidin (SA) chip (GE Healthcare) following the manufacturer’s protocol. Binding assays were carried out using a similar protocol as described above, only with a different injection time of 4 min. For BMP9-ALK1 and BMP4-ALK3 binding assays, BMP9 and BMP4 were added at 50 nM alone or in the presence of peptide P3 or P3r at 0.25 mM, 0.5 mM or 1 mM. Each cycle was set with a dissociation time of 12 min. Duplicated injections were performed for each ligand along with buffer blanks. The equilibrium dissociation constant KD was determined by fitting the data to a steady-state model using BIAevaluation software (GE Healthcare). […]
# [1] = tested on: ALP activity in C2C12 cells; test: BMP9-induced ALP activity in C2C12 cells; assay type: cell-based, mouse; settings: peptide 160 μM with BMP9, 65 h, DMEM 0.25% FBS, three independent experiments in duplicate
# Description: C2C12 mouse myoblasts were seeded in 24-well plates at 25,000 cells/well with antibiotics for 48 h. Treatments were performed in DMEM, 0.25% FBS with antibiotics in a final volume of 1.1 ml for 65 h. Cells were harvested and lysed in 1% Triton-X100 in PBS and the extracted total protein was quantified by Bio-Rad DC^TM protein assay (Bio-Rad). ALP activity was determined by incubating 15 μg of the total protein with ALP substrate p-nitrophenyl phosphate (PNPP, Sigma-Aldrich) and absorbance of the product p-nitrophenol (PNP) was recorded at 405 nm in 5 min intervals for 1 h. The relative ALP activity was expressed as fold change to the BMP9-treated control with data presented as means ± S.E.
# [2] = tested on: Smad1/5 phosphorylation in HMEC-1; test: BMP4-induced Smad1/5 phosphorylation in HMEC-1; assay type: cell-based, human; settings: peptide 250 μM, BMP4 0.3 ng/ml (11.54 pM GFD dimer), N = 3
# [3] = tested on: Smad1/5 phosphorylation in hPAECs; test: BMP9-induced Smad1/5 phosphorylation assay in hPAECs (immunoblot); assay type: cell-based, human; settings: BMP9 0.03 ng/ml (1.24 pM GFD dimer), peptide 250 μM (P3 also dose-dependent), 40 min, serum-starved, immunoblot densitometry
# Description: Endothelial cells were seeded in 6-cm dishes at 9 × 10^5 cells/dish and cultured for 24 hours (h) to full confluence, and then serum-starved for 16 h before treatments with control buffer, BMP9 alone, BMP9 with peptides, or peptides alone. After 40 min, cells were washed once with PBS and snap-frozen on dry ice to harvest. Cells were then lysed with buffer containing 125 mM Tris-HCl (pH 6.8), 2% SDS and 10% glycerol. The total protein concentration was determined using the DC^TM protein assay (Bio-Rad), of which 30 μg of total cell proteins was fractionated on 12% SDS-PAGE under non-reducing condition. The phosphorylation of Smad1/5 and total Smad1 were detected by anti-phospho-Smad1/5 antibody (9516 S) and anti-Smad 1 antibody (9743 S). The intensity of pSmad1/5 bands were quantified using ImageJ software, using β-actin or α-tubulin as the loading control.
# ALK1 = settings: read-out: affinity of ALK1 for BMP9; cited from earlier work
# Description: as §1
compound,measurement,setting,value
"BMP4: bone morphogenetic protein 4, growth factor",Kd,ALK3,1 to 10 nM
CC[C@H](C)[C@H](NC(=O)[C@H](CC(=O)O)NC(=O)[C@@H](NC(=O)[C@@H](NC(=O)[C@H](CCCCN)NC(=O)[C@H](Cc1ccccc1)NC(=O)[C@@H](NC(=O)[C@H](CCCCN)NC(=O)[C@H](CC(=O)O)NC(=O)[C@H](CC(C)C)NC(=O)[C@H](CCC(N)=O)NC(=O)[C@H](C)NC(=O)[C@@H]1CCCN1C(=O)[C@@H](NC(=O)[C@@H](NC(=O)[C@H](CS)NC(=O)[C@@H](NC(=O)[C@@H]1CCCN1)[C@@H](C)O)[C@@H](C)O)[C@@H](C)O)C(C)C)[C@@H](C)O)[C@@H](C)O)C(=O)N[C@@H](Cc1c[nH]cn1)C(=O)N[C@@H](Cc1ccccc1)C(=O)N[C@@H](CS)C(=O)N[C@@H](Cc1c[nH]cn1)C(=O)N[C@@H](CC(C)C)C(=O)O [Peptide P3r] (H-PTCTTPAQLDKVFKTTDIHFCHL-OH; N-terminus and C-terminus assumed),competing BMP4 binding to ALK3 (in words),BMP4 binding to ALK3-Fc,much less effective
same,effect on BMP9-induced ALP activity in C2C12 cells,[1],No difference
same,effect on BMP4-induced Smad1/5 phosphorylation in HMEC-1,[2],failed to inhibit
same,effect on BMP9-induced Smad1/5 phosphorylation in hPAECs,[3],significantly enhanced
"BMP9: bone morphogenetic protein 9, growth factor",Kd,ALK1,~0.03 nM
